Data as given in patent US20190365705A1, “TOPICAL TOCOTRIENOL COMPOSITIONS AND METHODS OF INCREASING SKIN STEM CELLS” (OHIO STATE INNOVATION FOUNDATION, priority 2017, published 2019).
{6FAM} = 6-carboxyfluorescein label

Columns and labels:
β-catenin = experiment: Topical IWR-1 pre-treatment of adult murine skin followed by TRF; type: in vivo, C57B1/6 mice
Method: Mice were randomly (www.random.org) divided into different groups as indicated in corresponding figure legends. The dorsal skin was shaved and hair was depilated using Nair® two days before experiments. TRF or its placebo (PBO) was applied topically at a dose of 5 mg/cm^2 skin, thrice per week. During the procedure, mice were anesthetized by low-dose isoflurane inhalation. Digital photographs were collected (Canon PowerShot S6 and Dermascope from Dino-lite ProII). In some experiments, to inhibit β-catenin expression, IWR-1 (Sigma; I0161) was used. A 10% DMSO stock IWR-1 solution was prepared and diluted with glycerol to a final concentration of 2 μg per 0.5 cm^2 of skin. This solution was applied topically on the dorsal skin of C57B1/6 mice at a dose of 12.5 μL/0.5 cm^2 for four consecutive days of IWR-1 or vehicle followed by 7 consecutive days of […] for one hour under occlusive dressing (Tegaderm™, 3M, St. Paul, Minn.).
Detection of anagen induction. Promotion of hair growth was evaluated by observing the skin color which is indicative of the telogen-to-anagen conversion.^50 Skin, collected and 8 μm formalin-fixed paraffin-embedded skin sections, were deparaffinized and stained with hematoxylin & eosin. Mosaic images at 20× were collected using Axioscanner (Zeiss Microscopy). From histological characterization of the sections, anagen follicles in dermis and subcutis layers were enumerated.
Histology, immunohistochemistry (IHC) and immunocytochemistry (ICC). Histology of skin was performed from 8 μm thick paraffin sections after staining with Hematoxylin and Eosin (H&E). Immunostaining of Ki67 (Abcam, ab15580; 1:400), LGR6 (Abcam, ab126747; 1:100), CD34 (Abcam, ab8158; 1:200), OCT4 (Abcam, ab19857; 1:200), SOX9 (Abcam, ab185230; 1:1000), KLF4 (Abcam; ab151733, 1:200), c-MYC (Abcam; ab32072, 1:200), NANOG (Abcam; ab80892, 1:200), K17 (Abcam, ab53707; 1:100), K15 (Abcam, ab52816; 1:100), Claudin (Invitrogen, RB9209P; 1:200), Occludin (Invitrogen, 711500; 1:200), ZO-1(Invitrogen, 617300; 1:200), ZO-2 (Invitrogen, 389100; 1:200), E-cadherin (Life Technologies, 131900; 1:200) and β-catenin (Abcam, ab22656; 1:200) were performed on paraffin and cryosections of skin sample using specific antibodies as indicated.^57 For immunocytochemistry, cells were fixed with cell fixation buffer (ebiosciences; 00-8222-49) and stained for respective antibodies. Specificity of the antibodies were validated using rabbit isotype control (Abcam, ab27478; 1:400), rat isotype control (Abcam, ab18412; 1:200), and mouse isotype control (Abcam, ab18443; 1:200) (FIG. 13). Briefly, OCT embedded tissue were cryosectioned (10 μm), fixed with cold acetone, blocked with 10% normal goat serum and incubated with specific antibodies overnight at 4° C. Signal was visualized by subsequent incubation with either biotinylated-tagged for DAB staining and fluorescence-tagged appropriate secondary antibodies (Alexa 488-tagged α-mouse, 1:200; Alexa 568-tagged α-mouse, 1:200; Alexa 488-tagged α-rabbit, 1:200; Alexa 568-tagged α-rabbit, 1:200; Alexa 568-tagged α-rat, 1:200).

β-catenin-Tcf3 complex = experiment: Tcf3 decoy transfection of keratinocytes with tocotrienol treatment (quantitative immunocytochemistry); type: cell-based, human; details: 24 h
Method: (§1) Cell and cell culture. Immortalized human keratinocytes (HaCaT) were grown in Dulbecco's low-glucose modified Eagle's medium (Life Technologies) as described previously.^55 Cells were maintained in a standard culture incubator with humidified air containing 5% CO2 at 37° C.
Synthesis of Tcf3 decoy and control double-stranded oligodeoxynucleotides. Tcf3 decoy and control double-stranded oligodeoxynucleotides were prepared as described previously.^22 Briefly, FAM labelled phosphorothioate oligodeoxynucleotides were synthesized and purified by Sigma-Aldrich. The oligonucleotides sequence used were as follow: Tcf3 decoy sense, 5′-6FAM-CCGGGCTTTGATCTTTGC-3′ (SEQ ID NO:1); Tcf3 decoy anti-sense, 5′-6FAM-GCAAAGATCAAAGCCCGG-3′ (SEQ ID NO:2); Tcf3 scramble sense, 5′-6FAM-CCGGGTCAGTTCTTTTGC -3′ (SEQ ID NO:3); Tcf3 scramble anti-sense, 5′-6FAM-GCAAAAGAACTGACCCGG -3′ (SEQ ID NO:4). […]
(§2) Histology, immunohistochemistry (IHC) and immunocytochemistry (ICC). […] Signal was visualized by subsequent incubation with either biotinylated-tagged for DAB staining and fluorescence-tagged appropriate secondary antibodies (Alexa 488-tagged α-mouse, 1:200; Alexa 568-tagged α-mouse, 1:200; Alexa 488-tagged α-rabbit, 1:200; Alexa 568-tagged α-rabbit, 1:200; Alexa 568-tagged α-rat, 1:200).

[1] = test system: human HaCaT keratinocytes; experiment: E-cadherin expression and β-catenin nuclear translocation in HaCaT keratinocytes (immunocytochemistry); type: cell-based; details: 24 h
Method: as §1
as §2, with “(ICC). Histology of skin was performed from 8 μm thick paraffin sections after staining with Hematoxylin and Eosin (H&E).” for “(ICC).”

β-catenin and Tcf3 = experiment: Proximity ligation assay (PLA) for β-catenin-Tcf3 in keratinocytes; type: cell-based, human; details: 1 μM, 24 h
Method: as §1
In situ proximity ligation assay (PLA). PLA was performed as described previously using Sigma Duolink® in situ red starter kit for […] (DUO92105) following manufacturer's instructions except that the incubation time was prolonged to 90 minutes.^58 The assay was performed using rabbit Tcf3 (Abcam, ab69999; 1:50) and mouse β-catenin (Abcam, ab22656; 1:200) antibodies. Slides were imaged using Olympus FV 1000 spectral confocal microscope.

O=C(Nc1cccc2cccnc12)c1ccc(N2C(=O)[C@@H]3[C@H](C2=O)[C@@H]2C=C[C@H]3C2)cc1 [IWR-1]
TRF-induced translocation of β-catenin to the nucleus (β-catenin): inhibited TRF-induced translocation of β-catenin to the nucleus
lowering of E-cadherin in response to TRF (β-catenin): did not influence
epidermal β-catenin (β-catenin; TRF-treated adult skin): effective in degrading epidermal β-catenin
number of anagen hair follicles induced by topical TRF (β-catenin; day 11 (day 7 post TRF application), vs vehicle): significantly decreased
TRF-stimulated keratinocyte proliferation (Ki67+ cells) (β-catenin; vs vehicle DMSO): eliminating the effect of TRF on stimulating keratinocytes proliferation

Tcf3 decoy: FAM labelled phosphorothioate double-stranded oligodeoxynucleotide based on Tcf3 binding consensus sequence (SEQ ID NO:1/2) (sense CCGGGCTTTGATCTTTGC; antisense GCAAAGATCAAAGCCCGG; DNA, all phosphorothioate, 5' {6FAM}, methylation of C not given here)
effect on tocotrienol-induced stemness and pluripotency factors (β-catenin-Tcf3 complex; decoy 0.1 μM vs scramble 0.1 μM, tocotrienol 1 μM): markedly blunted

α-tocotrienol [pure tocotrienol]
membrane E-cadherin expression ([1]; 1 μM): sharp decrease
nuclear translocation of β-catenin ([1]; pure tocotrienol 1 μM): nuclear translocation of β-catenin
interaction of β-catenin and Tcf3 (PLA) (β-catenin and Tcf3): interaction of β-catenin and Tcf3 in the nucleus
stemness and pluripotency factors (SOX9, OCT4, K17, K15, KLF4, c-MYC, NANOG) in keratinocytes (β-catenin-Tcf3 complex; pure tocotrienol 1 μM): induction of stemness as well as pluripotency factors
